Values quoted from earlier work in US9622981B2, “Liquid-filled hard gel capsule pharmaceutical formulations” (Mylan Inc., priority 2011, dated 2017).

Key:
[1] = ordinary conditions
[2] = not given; remark: listed apart in the source

stability [1]: stable under ordinary conditions
solubility in water: insoluble
partition coefficient, Log P [2]: 5.609±0.618
Compound: C[C@]12C=CC(=O)N[C@@H]1CC[C@@H]1[C@@H]2CC[C@]2(C)[C@@H](C(=O)Nc3cc(C(F)(F)F)ccc3C(F)(F)F)CC[C@@H]12 [Dutasteride, (5α,17β)-N-[2,5 bis(trifluoromethyl)phenyl]-3-oxo-4-azaandrost-1-ene-17-carboxamide]
